Results as given in patent publication EP4810489A1, “SUBSTITUTED 2-(PYRROLIDIN-3-YL)ACETIC ACID DERIVATIVE, PREPARATION METHOD THEREFOR AND USE THEREOF” (Innovstone Therapeutics Limited, priority 2023, dated 2025).

Key:
Lp(a) assembly = target: T1, Lp(a) assembly (Homo sapiens, UniProt P08519); experiment: ELISA assay on screening Lp(a) assembly inhibition; format: cell-based; conditions: HepG2 cells overexpressing ApoA protein, 24h incubation, ELISA of culture supernatant
T1 construct: expressed in transfected cells; host or cells: HepG2 cells overexpressing apo(a)
T1 sequence (P08519 20-2040): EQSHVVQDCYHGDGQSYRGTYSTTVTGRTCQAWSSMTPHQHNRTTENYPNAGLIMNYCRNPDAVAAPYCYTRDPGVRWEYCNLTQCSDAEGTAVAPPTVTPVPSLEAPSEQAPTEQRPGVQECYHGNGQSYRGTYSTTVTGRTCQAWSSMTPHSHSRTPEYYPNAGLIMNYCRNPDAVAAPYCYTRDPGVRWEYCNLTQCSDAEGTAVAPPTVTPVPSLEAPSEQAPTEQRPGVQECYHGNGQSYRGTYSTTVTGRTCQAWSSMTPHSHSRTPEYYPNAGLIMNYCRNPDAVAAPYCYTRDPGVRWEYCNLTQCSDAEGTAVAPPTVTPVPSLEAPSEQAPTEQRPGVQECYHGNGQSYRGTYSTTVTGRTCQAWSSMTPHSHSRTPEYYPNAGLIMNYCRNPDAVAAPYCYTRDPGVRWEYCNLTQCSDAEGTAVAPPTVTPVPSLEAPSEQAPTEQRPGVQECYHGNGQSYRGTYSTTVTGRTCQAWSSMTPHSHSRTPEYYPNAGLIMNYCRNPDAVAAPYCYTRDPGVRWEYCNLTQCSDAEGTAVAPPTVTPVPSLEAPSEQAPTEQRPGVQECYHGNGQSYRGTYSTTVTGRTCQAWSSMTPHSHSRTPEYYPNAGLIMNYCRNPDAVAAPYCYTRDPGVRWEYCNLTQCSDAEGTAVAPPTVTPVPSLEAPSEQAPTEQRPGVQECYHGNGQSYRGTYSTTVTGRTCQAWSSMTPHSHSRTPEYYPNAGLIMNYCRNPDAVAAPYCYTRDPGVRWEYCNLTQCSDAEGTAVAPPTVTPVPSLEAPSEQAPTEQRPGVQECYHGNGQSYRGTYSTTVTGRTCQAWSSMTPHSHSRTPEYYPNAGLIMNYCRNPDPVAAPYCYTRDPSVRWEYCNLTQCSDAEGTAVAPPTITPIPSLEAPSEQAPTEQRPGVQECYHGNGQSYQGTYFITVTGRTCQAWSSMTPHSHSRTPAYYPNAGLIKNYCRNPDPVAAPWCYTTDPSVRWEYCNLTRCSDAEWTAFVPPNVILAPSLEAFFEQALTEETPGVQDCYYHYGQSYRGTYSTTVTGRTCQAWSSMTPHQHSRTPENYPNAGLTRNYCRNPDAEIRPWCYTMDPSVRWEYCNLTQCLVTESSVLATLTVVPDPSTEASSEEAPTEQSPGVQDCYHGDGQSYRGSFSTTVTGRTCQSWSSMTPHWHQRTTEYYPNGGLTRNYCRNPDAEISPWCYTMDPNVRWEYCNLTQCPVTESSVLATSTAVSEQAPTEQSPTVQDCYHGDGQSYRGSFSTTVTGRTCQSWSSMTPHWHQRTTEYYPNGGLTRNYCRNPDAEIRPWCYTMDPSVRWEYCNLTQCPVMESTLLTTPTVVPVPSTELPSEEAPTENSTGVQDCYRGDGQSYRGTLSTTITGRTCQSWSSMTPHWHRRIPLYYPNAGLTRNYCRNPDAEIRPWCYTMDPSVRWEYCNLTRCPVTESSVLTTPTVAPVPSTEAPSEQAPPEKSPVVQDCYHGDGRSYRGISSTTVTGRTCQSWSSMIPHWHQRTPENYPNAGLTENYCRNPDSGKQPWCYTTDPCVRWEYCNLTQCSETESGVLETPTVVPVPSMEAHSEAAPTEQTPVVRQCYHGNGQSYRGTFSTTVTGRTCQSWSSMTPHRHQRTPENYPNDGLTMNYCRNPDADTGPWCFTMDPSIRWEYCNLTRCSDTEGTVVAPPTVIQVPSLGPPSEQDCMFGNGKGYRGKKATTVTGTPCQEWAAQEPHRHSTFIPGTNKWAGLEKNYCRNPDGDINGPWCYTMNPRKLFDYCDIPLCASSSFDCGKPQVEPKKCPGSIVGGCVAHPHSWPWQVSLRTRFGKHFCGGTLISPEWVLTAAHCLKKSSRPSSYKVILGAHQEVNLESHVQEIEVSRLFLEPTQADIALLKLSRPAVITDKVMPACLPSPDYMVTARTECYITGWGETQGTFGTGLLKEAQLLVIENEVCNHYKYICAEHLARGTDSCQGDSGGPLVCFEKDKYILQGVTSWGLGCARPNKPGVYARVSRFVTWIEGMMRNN
Method: Test Example 1 and Methods of ELISA Assay on Screening Lp(a) Assembly Inhibition
1. Reagents, Consumables, Instruments
2. Cell Culture Media Preparation 2.1. Complete Cell Culture Media
3. Test Procedure • 3.1 Cell Culture and Passage • 1) Preheated the culture media, DPBS, and pancreatin in a 37°C water bath in advance. • 2) Digested cells with pancreatin, transferred the cell suspension to a 15 mL centrifuge tube, and centrifuged at 1000 rpm for 5 min. • 3) Resuspended the cells with culture media and transferred the cell suspension to a new T75 cell culture flask. • 4) Cultured at 37°C in a 5% CO2 incubator. • 3.2. Cell Seeding and Drug Administration • 1) Seeded HepG2 cells overexpressing of ApoA protein into a 96-well plate at 100 µL per well and incubated overnight for attachment. • 2) Replaced with fresh culture media the next day, then added diluted compounds, and cultured the cell plate in a 5% CO2, 37°C incubator for 24h. • 3.3. Preparation of Cell Culture Supernatant • 1) Added 10 µL of 1.5 M EACA to each well. • 2) Centrifuged at 1000 rpm for 1 min, and transferred 100 µL of cell culture supernatant to a pre-coated ELISA plate. • 3.4. […]

Lp(a) = experiment: Humanized mouse Lp(a) inhibition test; format: in vivo, humanized Lp(a) transgenic mouse; conditions: oral, 5 mg/kg once daily for 3 consecutive days, blood 8 h after last dose
Method: Test Example 3 and Humanized Mouse Lp(a) Inhibition Test
The in vivo pharmacodynamics of the compounds in reducing Lp(a) was evaluated in a humanized Lp(a) transgenic mouse model.Lp(a) mice were obtained by crossing mice expressing humanized apoB-100 with mice expressing humanized apo(a) containing 16 Kringle repeats.Female mice aged 8-9 weeks were selected for the test.Housing conditions: standard light cycle (12 h light/12 h dark), temperature 20-25°C, humidity 40-70%, free access to water and normal diet.
One day before the test, mice were divided into vehicle control group and test article group (n=5/group) according to body weight and baseline plasma Lp(a) concentration. […] Eight hours after the last dose, 10 µL of blood was collected from the tail vein and transferred to a 1.5 mL centrifuge tube containing 90 µL of normal saline, mixed well, and left to stand on ice for 30min.The above samples were centrifuged at 4°C, 3000 rpm for 10 min, and the supernatant was collected and placed on ice.The Lp(a) concentration in the supernatant was measured by double-antibody sandwich ELISA using an anti-apo(a) capture antibody and an HRP-conjugated anti-ApoB detection antibody, with TMB for color development. The reaction was stopped with 1 N sulfuric acid, and the OD value was read at 450 nm on a Tecan microplate reader.Inhibition rate was calculated for each dosing group. […]

[1] = Safety assessment test in rats; format: in vivo, SD rats; conditions: oral gavage, 300 mg/kg and 1000 mg/kg once daily for 14 consecutive days
Method: Test Example 5 and Safety Assessment Test in Rats
The safety of the compounds of the present invention was evaluated by oral gavage administration to SD rats as the test animals.
Test method: 50 SD rats (half males and half females) were randomly divided into vehicle control group and test article group according to their body weight. The vehicle saline or the compound of the present invention or LY3473329 (300 mg/kg, 1000 mg/kg) was administered orally once daily for 14 consecutive days.

Compound	IC50 (Lp(a) assembly) [nM]	Lp(a) Inhibition Rate (Lp(a)) [%]	changes in clinical observation, body weight and weight gain, food consumption, hematology, blood biochemistry, urine, organ weight and coefficients, and histopathology [1]
O=C(O)[C@@H](Cc1ccc2c(CN(Cc3n[nH]c4cc(C[C@H](C(=O)O)[C@H]5CCNC5)ccc34)Cc3n[nH]c4cc(C[C@H](C(=O)O)[C@H]5CCNC5)ccc34)n[nH]c2c1)[C@H]1CCNC1 [Compound 136]	2.16		
O=C(O)[C@@H](Cc1cccc(CN(Cc2cccc(C[C@H](C(=O)O)[C@H]3CCNC3)c2)Cc2cccc(C[C@H](C(=O)O)[C@H]3CCNC3)c2)c1)[C@H]1CCNC1 [LY3473329]	1.05	56	no changes
